20 compounds from publication PMC8474119, “Discovery and SAR Evolution of Pyrazole Azabicyclo[3.2.1]octane Sulfonamides as a Novel Class of Non-Covalent N-Acylethanolamine-Hydrolyzing Acid Amidase (NAAA) Inhibitors for Oral Administration” (Journal of Medicinal Chemistry, 2021) can be followed below.

Several values for one entry are separate records, joined by “and”; a condition that tells them apart may be missing. Equal values may be shown once.

For the experiment, the target named is T1, h-NAAA (Homo sapiens, UniProt Q02083).
T1 construct: made in house; host or cells: HEK-293 cells stably overexpressing human NAAA; enzyme-enriched (lysosomal) lysate
T1 sequence (Q02083 29-125 limits assumed): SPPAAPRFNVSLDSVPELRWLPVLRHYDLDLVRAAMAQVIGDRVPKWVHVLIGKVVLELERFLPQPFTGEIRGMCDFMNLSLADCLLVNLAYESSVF
T1 sequence (Q02083 126-359 limits assumed): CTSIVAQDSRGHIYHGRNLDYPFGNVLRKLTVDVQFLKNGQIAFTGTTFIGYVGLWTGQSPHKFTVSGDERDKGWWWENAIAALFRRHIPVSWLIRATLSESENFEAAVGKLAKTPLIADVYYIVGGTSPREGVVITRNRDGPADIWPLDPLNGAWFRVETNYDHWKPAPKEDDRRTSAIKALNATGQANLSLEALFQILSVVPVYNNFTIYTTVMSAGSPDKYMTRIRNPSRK
Put plainly: Fluorogenic human-NAAA assay (h-NAAA, fluo.). As to conditions: for IC50: mean ± SD (n ≥ 3), n.a.: not active @50 μM (<10% inhibition). The experiment is classed as biochemical. The protocol: Human recombinant proteins were obtained from HEK-293 stable overexpressing human NAAA, AC, and FAAH-1 cell lines, respectively. Cells were grown in Dulbecco’s modified Eagle medium (DMEM) containing 10% FBS, 1% glutamine, 1 mM sodium pyruvate, and 500 μg/mL geneticin (G418). To obtain a high-density cell proliferation, h-NAAA-HEK-293 cells were grown in BelloCell-500 bottle, a compact bioreactor. On the contrary, h-AC and h-FAAH-1-HEK-293 cells were grown in 150 mm dishes and scraped off with cold PBS 1× pH 7.4 at 80% confluence. Cell pellets were collected and stored at −80 °C until protein preparation.
HEK-293 cells stably transfected with the human NAAA or human AC coding sequences were used as the enzyme source. Cells were suspended in 20 mM Tris-HCl (pH 7.4) with 0.32 M sucrose, sonicated, and centrifuged at 800g for 30 min at 4 °C. Supernatants were then centrifuged at 12,000g for 30 min at 4 °C. Pellets were resuspended in PBS buffer (pH 7.4) and subjected to three freeze-thaw cycles at −80 °C. The suspension was finally centrifuged at 105,000g for 1 h at 4 °C, supernatants were collected, protein concentration was measured, and samples were aliquoted and stored at −80 °C until use.
The assay was run in 96-well microplates (Black OptiPlate-96 F; PerkinElmer, Massachusetts, USA), in a total reaction volume of 200 μL. h-NAAA protein preparation (4 μg) was preincubated for 30 min with various concentrations of test compounds or vehicle control (DMSO 5%) in 100 mM citrate/phosphate buffer (pH 4.5) containing 3.0 mM DTT, 0.1% NP40, 0.05% BSA, and 150 mM NaCl. The background (no activity) samples were prepared using assay buffer without h-NAAA and DMSO (5%). N-(4-methyl-2-oxo-chromen-7-yl)-hexadecanamide (PAMCA)[60] was used as a substrate (2 μM) and the reaction was carried out for 50 min at 37 °C. Fluorescence was measured with EnVision 2014 Multilabel Reader (PerkinElmer, Massachusetts, USA) using an excitation wavelength of 355 nm and an emission of 460 nm. IC50 values were calculated by non-linear regression analysis of log[concentration]/response curves generated with mean replicate values using a four-parameter Hill equation curve fitting with GraphPad Prism 5 (GraphPad Software Inc., CA, USA).

Consider `Cc1nn(C)c(C)c1S(=O)(=O)N1CCC(Oc2cnccn2)CC1` [Compound 4, 2-((1-((1,3,5-Trimethyl-1H-pyrazol-4-yl)sulfonyl)piperidin-4-yl)oxy)pyrazine], for which the “h-NAAA inhibitory activity, in words” value (h-NAAA (fluo.)) is listed as “complete loss of inhibitory effect”.

As to `Cc1n[nH]c(C)c1S(=O)(=O)N1[C@@H]2CC[C@H]1C[C@@H](Oc1ccc(C#N)cc1)C2` [Compound 45], the IC50 (commonly the midpoint of a concentration-inhibition curve) (h-NAAA (fluo.)) amounted to 757 ± 80 nM.

In turn, `Cc1n[nH]c(C)c1S(=O)(=O)N1C[C@H]2CCC[C@@H](C1)[C@@H]2Oc1cnccn1` [Compound 29, (1R,5S,9s)-3-((3,5-Dimethyl-1H-pyrazol-4-yl)sulfonyl)-9-(pyrazin-2-yloxy)-3-azabicyclo[3.3.1]nonane] returned an IC50 (h-NAAA (fluo.)) of 690 ± 60 nM.

Turning to `Cc1cnn(C)c1S(=O)(=O)N1CCC(Oc2cnccn2)CC1` [Compound 6, 2-((1-((1,4-Dimethyl-1H-pyrazol-5-yl)sulfonyl)piperidin-4-yl)oxy)pyrazine], the “h-NAAA inhibitory activity, in words” value (h-NAAA (fluo.)) was “complete loss of inhibitory effect”.

Take `Cc1n[nH]c(C)c1S(=O)(=O)N1[C@@H]2CC[C@H]1C[C@@H](Oc1ccccn1)C2` [Compound 30, (1R,3r,5S)-8-((3,5-Dimethyl-1H-pyrazol-4-yl)sulfonyl)-3-(pyridin-2-yloxy)-8-azabicyclo[3.2.1]octane]: the 50% inhibitory concentration (IC50) (h-NAAA (fluo.)) is 160 nM and 162 nM.

For the compound `Cc1n[nH]c(C)c1S(=O)(=O)N1CCC(c2cnccn2)CC1` [Compound 24, 2-(1-((3,5-Dimethyl-1H-pyrazol-4-yl)sulfonyl)piperidin-4-yl)pyrazine], the “h-NAAA inhibitory activity, in words” value (h-NAAA (fluo.)) is reported as “abolished the inhibitory activity”.

Where the note is “h-NAAA (fluo.)”, `Cc1n[nH]c(C)c1S(=O)(=O)N(C)CCCOc1cnccn1` [Compound 19, N,3,5-Trimethyl-N-(3-(pyrazin-2-yloxy)propyl)-1H-pyrazole-4-Sulfonamide] showed an IC50 of 4290 ± 970 nM.

With `O=S(=O)(c1cn[nH]c1)N1CCC(Oc2cnccn2)CC1` [Compound 3, 2-((1-((1H-Pyrazol-4-yl)sulfonyl)piperidin-4-yl)oxy)pyrazine], the “h-NAAA inhibitory activity, in words” value (h-NAAA (fluo.)) is on record as “devoid of any activity”.

Compound `Cc1ccccc1O[C@H]1C[C@H]2CC[C@@H](C1)N2S(=O)(=O)c1c(C)n[nH]c1C` [Compound 36, (1R,3r,5S)-8-((3,5-Dimethyl-1H-pyrazol-4-yl)sulfonyl)-3-(o-tolyloxy)-8-azabicyclo[3.2.1]octane] showed an IC50 (h-NAAA (fluo.)) of 291 ± 10 nM.

For the compound `Cc1n[nH]c(C)c1S(=O)(=O)N1CCC(Nc2cnccn2)CC1` [Compound 22, N-(1-((3,5-Dimethyl-1H-pyrazol-4-yl)sulfonyl)piperidin-4-yl)pyrazin-2-amine], the “h-NAAA inhibitory activity, in words” value (h-NAAA (fluo.)) was “abolished the inhibitory activity”.

Take `Cc1n[nH]cc1S(=O)(=O)N1CCC(Oc2cnccn2)CC1` [Compound 2, 2-((1-((3-Methyl-1H-pyrazol-4-yl)sulfonyl)piperidin-4-yl)oxy)pyrazine]: the “h-NAAA inhibitory activity, in words” value (h-NAAA (fluo.)) is given as “devoid of any activity”.

As to `Cc1n[nH]c(C)c1S(=O)(=O)N1[C@@H]2CC[C@H]1C[C@@H](Oc1ccc(CCC(C)C)cc1)C2` [Compound 42, (1R,3r,5S)-8-((3,5-Dimethyl-1H-pyrazol-4-yl)sulfonyl)-3-(4-isopentylphenoxy)-8-azabicyclo[3.2.1]octane], the IC50 (h-NAAA (fluo.)) is 114 ± 10 nM.

In turn, `Cc1[nH]nc(C(F)(F)F)c1S(=O)(=O)N1CCC(Oc2cnccn2)CC1` [Compound 14, 2-((1-((5-Methyl-3-(trifluoromethyl)-1H-pyrazol-4-yl)sulfonyl)piperidin-4-yl)oxy)pyrazine] returned an IC50 (h-NAAA (fluo.)) of 3290 ± 230 nM.

Under “h-NAAA (fluo.)”, `Cc1ccc(O[C@@H]2C[C@H]3CC[C@@H](C2)N3S(=O)(=O)c2c(C)n[nH]c2C)cc1` [Compound 34, (1R,3s,5S)-8-((3,5-Dimethyl-1H-pyrazol-4-yl)sulfonyl)-3-(p-tolyloxy)-8-azabicyclo[3.2.1]octane] yielded an IC50 of 8710 ± 340 nM. Compared with the last compound, the IC50 is about 2.6-fold higher.

Where the note is “h-NAAA (fluo.)”, `Cc1cccc(C)c1S(=O)(=O)N1CCC(Oc2cnccn2)CC1` [Compound 7, 2-((1-((2,6-Dimethylphenyl)sulfonyl)piperidin-4-yl)oxy)pyrazine] gave an IC50 of 4480 ± 940 nM.

Regarding `CCCOc1ccc(O[C@H]2C[C@H]3CC[C@@H](C2)N3S(=O)(=O)c2c(C)n[nH]c2C)cc1` [Compound 47, (1R,3r,5S)-8-((3,5-Dimethyl-1H-pyrazol-4-yl)sulfonyl)-3-(4-propoxyphenoxy)-8-azabicyclo[3.2.1]octane], the LipE (LipE = pIC50 – c Log P (h-NAAA)) is 3.55. For the same compound, the pIC50 (commonly the IC50 on a negative log10 scale, so that one unit is a factor of ten) (Table S1, h-NAAA (fluo.)) is reported as 6.35. In addition, under “h-NAAA (fluo.)”, it took 450 ± 70 nM to reach half-maximal inhibition (IC50).

`Cc1noc(C)c1S(=O)(=O)N1CCC(Oc2cnccn2)CC1` [Compound 5, 3,5-Dimethyl-4-((4-(pyrazin-2-yloxy)piperidin-1-yl)sulfonyl)isoxazole]: the “h-NAAA inhibitory activity, in words” value (h-NAAA (fluo.)) is on record as “complete loss of inhibitory effect”.

As for `CCCc1n[nH]c(C)c1S(=O)(=O)N1CCC(Oc2cnccn2)CC1` [Compound 9, 2-((1-((5-Methyl-3-propyl-1H-pyrazol-4-yl)sulfonyl)piperidin-4-yl)oxy)pyrazine], half-maximal inhibition (h-NAAA (fluo.)) (IC50) was put at 330 ± 40 nM.

Turning to `Cc1n[nH]c(C)c1C(=O)N1CCC(Oc2cnccn2)CC1` [Compound 16, (3,5-Dimethyl-1H-pyrazol-4-yl)(4-(pyrazin-2-yloxy)piperidin-1-yl)methanone], the “h-NAAA inhibitory activity, in words” value (h-NAAA (fluo.)) was “complete loss of activity”.

In turn, `CCc1n[nH]c(CC)c1S(=O)(=O)N1CCC(Oc2cnccn2)CC1` [Compound 15, 2-((1-((3,5-Diethyl-1H-pyrazol-4-yl)sulfonyl)piperidin-4-yl)oxy)pyrazine] showed an IC50 (h-NAAA (fluo.)) of 1110 ± 310 nM.
